Results taken from patent US20240317744A1, “Bicyclic Ureas As Kinase Inhibitors” (Incyte Corporation, priority 2023, published 2024).

Columns and labels:
[1] = target: catalytic domain (JH1, amino acids 808-1132) of human JAK2 (Homo sapiens, UniProt O60674); test: JAK2 HTRF Enzyme Activity Assay; format: biochemical; conditions: ATP 30 µM, 60 minutes at 25° C.; read-out: V617F ENZ 30 UM
[2] = target: T1, pseudo-kinase domain (JH2, amino-acids 536-812) of human Wild Type JAK2 (Homo sapiens, UniProt O60674, F794H/W659A/W777A); test: JAK2 LanthaScreen JH2-WT Binding Assay; conditions: JAK2 JH2-WT 0.145 nM, 50 nM tracer, 1 hour at 25° C.; read-out: JH2 BIND WT
T1 construct: pseudo-kinase domain (JH2, amino-acids 536-812 with 3 surface mutations W659A, W777A, F794H); His (C); purchased BPS Bioscience 79463; host or cells: baculovirus expression system
Procedure, shortened: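 TR-FRET tracer displacement: 0.145 nM biotinylated JH2 protein, 50 nM fluorescent tracer, 0.25 nM streptavidin-Tb, compound dilution series; 50 mM Tris pH 7.5, 10 mM MgCl2, 5 mM DTT; 1 h, 25° C. Non-specific binding with 2 mM ATP. IC50 by 4-parameter fit.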

[3] = target: T2, catalytic domain (JH1, amino acids 826-1132) of human JAK2 (Homo sapiens, UniProt O60674); test: JAK2 LanthaScreen JH1 Binding Assay; conditions: JAK2 JH1 1.5 nM, 50 nM tracer, 2 hours at 25° C.; read-out: JH1 BIND
T2 construct: catalytic domain (JH1, amino acids 826-1132) of human JAK2; FLAG (N); biotin (biotinylated); purchased Carna Biosciences 08-445-20N; host or cells: baculovirus expression system
Procedure, shortened: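 TR-FRET tracer-displacement format: compound IC50 from four-parameter curves after 2 h at 25° C. Reaction held 1.5 nM biotinylated, FLAG-tagged JH1 (aa 826-1132), 50 nM tracer, 0.5 nM Streptavidin-Tb, pH 7.5 Tris buffer; 2 mM ATP set nonspecific background.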

[4] = target: T3, pseudo-kinase domain (JH2, amino-acids 536-812) of human V617F mutant JAK2 (Homo sapiens, UniProt O60674, F794H/V617F/W659A/W777A); test: JAK2 LanthaScreen JH2-V617F Binding Assay; conditions: JAK2 JH2-V617F 0.26 nM, 50 nM tracer, 1 hour at 25° C.; read-out: JH2 BIND V617F
T3 construct: pseudo-kinase domain (JH2, amino-acids 536-812 with 3 surface mutations W659A, W777A, F794H); His (C); purchased BPS Bioscience 79498; host or cells: baculovirus expression system
Procedure, shortened: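 Serially diluted compounds are mixed with 0.26 nM protein, 50 nM fluorescent JAK2-JH2 tracer and 0.25 nM terbium-labelled streptavidin, then incubated 1 h at 25° C. LanthaScreen signal is read, and IC50 is fitted.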

T1 sequence (O60674 536-812 W659A/W777A/F794H): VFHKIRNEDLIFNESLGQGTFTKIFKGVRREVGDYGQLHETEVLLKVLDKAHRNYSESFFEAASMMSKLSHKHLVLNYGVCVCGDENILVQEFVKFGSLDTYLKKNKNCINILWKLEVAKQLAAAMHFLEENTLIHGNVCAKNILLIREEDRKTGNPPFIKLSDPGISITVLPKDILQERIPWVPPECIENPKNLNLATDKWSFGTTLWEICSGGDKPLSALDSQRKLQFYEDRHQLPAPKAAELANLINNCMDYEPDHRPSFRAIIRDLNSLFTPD
T2 sequence (O60674 826-1132): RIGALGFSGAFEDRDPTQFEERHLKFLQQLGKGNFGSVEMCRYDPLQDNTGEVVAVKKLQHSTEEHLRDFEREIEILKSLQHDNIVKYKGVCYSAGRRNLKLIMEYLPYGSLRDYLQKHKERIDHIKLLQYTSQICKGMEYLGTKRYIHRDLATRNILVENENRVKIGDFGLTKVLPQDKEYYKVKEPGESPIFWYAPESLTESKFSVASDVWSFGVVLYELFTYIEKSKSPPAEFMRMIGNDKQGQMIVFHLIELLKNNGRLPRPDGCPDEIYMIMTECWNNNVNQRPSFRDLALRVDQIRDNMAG
Sequence of catalytic domain (JH1, amino acids 808-1132) of human JAK2 (O60674 808-1132 limits assumed): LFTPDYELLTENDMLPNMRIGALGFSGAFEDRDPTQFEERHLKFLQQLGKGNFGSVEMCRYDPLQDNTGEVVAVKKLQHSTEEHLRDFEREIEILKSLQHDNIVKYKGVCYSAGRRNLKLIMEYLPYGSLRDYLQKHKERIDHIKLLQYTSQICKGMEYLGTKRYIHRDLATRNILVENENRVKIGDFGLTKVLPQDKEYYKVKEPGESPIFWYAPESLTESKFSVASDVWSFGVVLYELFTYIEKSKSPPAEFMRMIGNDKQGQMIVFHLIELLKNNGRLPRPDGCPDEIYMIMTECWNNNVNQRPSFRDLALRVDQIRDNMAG
T3 sequence (O60674 536-812 V617F/W659A/W777A/F794H): as the sequence (O60674 536-812 W659A/W777A/F794H) above, with V82F counted along it

SMILES | IC50 [1] [µM] | IC50 [2] [µM] | IC50 [3] [µM] | IC50 [4] [µM]
COC(=O)Nc1cc(Nc2cc3c(cn2)n(C)c(=O)n3C2CC3CC2CN3C(C)=O)cc(-c2cnn(C)c2)c1 (stereo not drawn) [Example 40, Methyl (3-((1-(2-acetyl-2-azabicyclo[2.2.1]heptan-5-yl)-3-methyl-2-oxo-2,3-dihydro-1H-imidazo[4,5-c]pyridin-6-yl)amino)-5-(1-methyl-1H-pyrazol-4-yl)phenyl)carbamate] | > 1 | 0.01 to 0.1 | > 1 | 0.01 to 0.1
COC(=O)N[C@@H]1CC[C@@H](n2c(=O)n(C)c3cnc(Nc4cc(NS(=O)(=O)C5CC(F)(F)C5)cc(C5CCOCC5)c4)cc32)C1 [Example 41, Methyl ((1R,3R)-3-(6-((3-((3,3-difluorocyclobutane)-1-sulfonamido)-5-(tetrahydro-2H-pyran-4-yl)phenyl)amino)-3-methyl-2-oxo-2,3-dihydro-1H-imidazo[4,5-c]pyridin-1-yl)cyclopentyl)carbamate] | > 1 | 0.01 to 0.1 | > 1 | 0.01 to 0.1
C#CCOC(=O)N[C@@H]1CC[C@@H](n2c(=O)n(C)c3cnc(Nc4cc(NC(=O)OC5CCC5)cc(-c5cnn(C)c5)c4)cc32)C1 [Example 47, Prop-2-yn-1-yl ((1R,3R)-3-(6-((3-((cyclobutoxycarbonyl)amino)-5-(1-methyl-1H-pyrazol-4-yl)phenyl)amino)-3-methyl-2-oxo-2,3-dihydro-1H-imidazo[4,5-c)pyridin-1-yl)cyclopentyl)carbamate] | > 1 | ≤ 0.01 | > 1 | ≤ 0.01
